In general, IC50 refers to the concentration at which inhibition is half-maximal. As a reminder, the EC50 is the concentration needed to bring the measured effect to its halfway point. Read a high EC50 as lower potency in that assay.

Common to all, as to format: cell-based
The target in assay [1] is T1, Potassium channel subfamily T member 1 (Homo sapiens, UniProt Q5JUK3).
T1 sequence (Q5JUK3 whole entry): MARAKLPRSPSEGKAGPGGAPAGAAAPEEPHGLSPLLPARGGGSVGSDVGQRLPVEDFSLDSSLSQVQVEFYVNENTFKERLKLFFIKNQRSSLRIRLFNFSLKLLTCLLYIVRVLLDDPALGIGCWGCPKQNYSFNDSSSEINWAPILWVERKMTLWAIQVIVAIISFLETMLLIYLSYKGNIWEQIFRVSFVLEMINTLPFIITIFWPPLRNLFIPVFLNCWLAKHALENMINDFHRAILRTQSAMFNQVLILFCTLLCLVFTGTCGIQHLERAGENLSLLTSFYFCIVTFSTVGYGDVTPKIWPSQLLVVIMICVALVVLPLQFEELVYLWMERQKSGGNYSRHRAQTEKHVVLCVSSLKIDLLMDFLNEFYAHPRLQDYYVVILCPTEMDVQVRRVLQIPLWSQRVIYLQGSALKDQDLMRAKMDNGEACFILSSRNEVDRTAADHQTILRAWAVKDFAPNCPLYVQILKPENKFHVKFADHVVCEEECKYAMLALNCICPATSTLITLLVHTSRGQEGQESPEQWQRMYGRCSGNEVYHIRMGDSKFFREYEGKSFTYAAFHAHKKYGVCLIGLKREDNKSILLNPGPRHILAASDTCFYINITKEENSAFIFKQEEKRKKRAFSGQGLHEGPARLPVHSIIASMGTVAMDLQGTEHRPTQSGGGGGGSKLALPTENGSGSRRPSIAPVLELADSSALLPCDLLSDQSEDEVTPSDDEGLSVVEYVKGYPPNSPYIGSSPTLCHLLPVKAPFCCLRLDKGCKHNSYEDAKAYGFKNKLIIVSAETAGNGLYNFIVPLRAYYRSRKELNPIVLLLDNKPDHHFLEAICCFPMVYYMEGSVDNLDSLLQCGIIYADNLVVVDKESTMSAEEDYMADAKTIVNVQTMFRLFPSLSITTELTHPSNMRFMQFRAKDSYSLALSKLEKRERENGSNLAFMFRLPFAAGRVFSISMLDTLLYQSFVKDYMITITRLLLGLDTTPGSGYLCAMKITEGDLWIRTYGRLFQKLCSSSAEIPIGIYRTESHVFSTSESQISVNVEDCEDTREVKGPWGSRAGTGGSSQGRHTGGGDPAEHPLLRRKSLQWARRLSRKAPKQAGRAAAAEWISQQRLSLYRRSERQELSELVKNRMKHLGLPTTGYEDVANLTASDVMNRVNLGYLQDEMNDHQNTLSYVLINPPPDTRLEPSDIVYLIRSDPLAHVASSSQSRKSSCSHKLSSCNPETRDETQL
The assay is described as follows: Inhibition of wild-type human Slack expressed in HEK293 cells measured by thallium flux assay.

Assay [2] in a line: Inhibition of human Slack A934T mutant expressed in HEK293 cells measured by thallium flux assay.
Assay [3] addresses T1, Potassium channel subfamily T member 1. The assay is described as follows: Inhibition of wild-type Slack (unknown origin) expressed in HEK293 cells measured by whole-cell electrophysiology assay.
Assay [4] is described as follows: Inhibition of Slack A934T mutant (unknown origin) expressed in HEK293 cells measured by whole-cell electrophysiology assay. Conditions: Homo sapiens.
For assay [5], the target named is T2, Calcium-activated potassium channel subunit alpha-1 (Homo sapiens, UniProt Q12791). Description: Inhibition of Maxi-K (unknown origin) expressed in HEK293 cells measured by thallium flux assay.
T2 sequence (Q12791 whole entry): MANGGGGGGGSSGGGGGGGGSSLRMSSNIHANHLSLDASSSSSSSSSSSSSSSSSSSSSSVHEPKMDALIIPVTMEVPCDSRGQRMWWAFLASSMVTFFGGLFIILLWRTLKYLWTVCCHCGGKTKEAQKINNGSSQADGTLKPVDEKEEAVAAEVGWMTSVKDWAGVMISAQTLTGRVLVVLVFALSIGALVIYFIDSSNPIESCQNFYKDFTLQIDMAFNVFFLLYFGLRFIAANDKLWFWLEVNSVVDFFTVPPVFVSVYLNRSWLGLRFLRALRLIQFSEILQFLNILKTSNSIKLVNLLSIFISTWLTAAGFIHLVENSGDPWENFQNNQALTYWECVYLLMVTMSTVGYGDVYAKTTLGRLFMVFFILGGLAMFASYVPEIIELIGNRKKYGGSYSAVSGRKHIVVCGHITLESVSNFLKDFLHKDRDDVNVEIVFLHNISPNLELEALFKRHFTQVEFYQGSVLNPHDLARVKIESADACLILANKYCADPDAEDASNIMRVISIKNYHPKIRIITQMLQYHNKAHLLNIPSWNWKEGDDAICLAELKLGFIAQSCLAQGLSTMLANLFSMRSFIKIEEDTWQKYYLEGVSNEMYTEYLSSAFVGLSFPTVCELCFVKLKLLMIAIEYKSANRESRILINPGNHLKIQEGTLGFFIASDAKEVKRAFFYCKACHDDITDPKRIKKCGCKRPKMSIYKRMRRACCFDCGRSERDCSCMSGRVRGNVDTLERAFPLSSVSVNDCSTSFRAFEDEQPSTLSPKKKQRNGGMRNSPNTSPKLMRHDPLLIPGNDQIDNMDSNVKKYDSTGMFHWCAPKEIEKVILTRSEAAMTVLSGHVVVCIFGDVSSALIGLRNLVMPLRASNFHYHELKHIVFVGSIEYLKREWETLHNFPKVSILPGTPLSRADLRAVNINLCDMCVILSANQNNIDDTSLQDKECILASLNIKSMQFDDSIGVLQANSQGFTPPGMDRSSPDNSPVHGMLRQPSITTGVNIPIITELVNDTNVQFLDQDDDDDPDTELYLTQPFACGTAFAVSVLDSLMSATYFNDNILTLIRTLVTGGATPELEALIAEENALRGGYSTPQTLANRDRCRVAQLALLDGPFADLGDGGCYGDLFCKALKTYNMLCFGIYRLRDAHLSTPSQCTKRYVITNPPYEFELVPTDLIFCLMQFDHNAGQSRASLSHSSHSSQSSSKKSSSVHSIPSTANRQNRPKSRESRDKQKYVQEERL
In assay [6] the target is T3, Potassium channel subfamily T member 2 (Homo sapiens) (UniProt Q6UVM3).
T3 sequence (whole entry): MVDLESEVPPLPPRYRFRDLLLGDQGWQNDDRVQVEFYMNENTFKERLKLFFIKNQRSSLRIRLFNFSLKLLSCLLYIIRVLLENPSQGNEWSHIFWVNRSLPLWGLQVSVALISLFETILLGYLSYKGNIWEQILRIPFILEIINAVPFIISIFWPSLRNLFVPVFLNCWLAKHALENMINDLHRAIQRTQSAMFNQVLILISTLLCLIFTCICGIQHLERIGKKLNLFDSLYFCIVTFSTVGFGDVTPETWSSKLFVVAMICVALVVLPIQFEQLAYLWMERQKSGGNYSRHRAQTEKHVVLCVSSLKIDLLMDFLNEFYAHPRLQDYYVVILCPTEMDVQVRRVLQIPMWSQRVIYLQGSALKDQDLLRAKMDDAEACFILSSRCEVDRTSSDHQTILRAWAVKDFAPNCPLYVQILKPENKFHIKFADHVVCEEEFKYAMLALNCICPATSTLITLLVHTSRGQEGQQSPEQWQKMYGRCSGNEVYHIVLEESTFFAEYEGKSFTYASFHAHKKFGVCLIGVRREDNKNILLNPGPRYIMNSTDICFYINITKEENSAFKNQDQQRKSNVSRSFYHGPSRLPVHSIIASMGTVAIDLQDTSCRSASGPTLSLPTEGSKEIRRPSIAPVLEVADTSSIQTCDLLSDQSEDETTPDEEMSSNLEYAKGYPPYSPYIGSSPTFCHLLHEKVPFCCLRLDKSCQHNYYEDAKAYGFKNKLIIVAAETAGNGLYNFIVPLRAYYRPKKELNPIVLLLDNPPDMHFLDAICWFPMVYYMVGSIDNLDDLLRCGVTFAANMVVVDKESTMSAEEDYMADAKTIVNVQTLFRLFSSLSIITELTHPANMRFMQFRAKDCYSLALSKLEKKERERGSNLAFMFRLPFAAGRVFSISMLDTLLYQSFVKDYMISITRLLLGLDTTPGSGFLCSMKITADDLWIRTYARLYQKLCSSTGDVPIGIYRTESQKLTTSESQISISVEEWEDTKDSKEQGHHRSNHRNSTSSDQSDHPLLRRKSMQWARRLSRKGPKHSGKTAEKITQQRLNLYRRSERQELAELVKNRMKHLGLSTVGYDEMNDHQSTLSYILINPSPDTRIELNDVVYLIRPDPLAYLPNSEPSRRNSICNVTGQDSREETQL
The assay is described as follows: Inhibition of Slick (unknown origin) expressed in HEK293 cells at 30 uM measured by thallium flux assay relative to control.

Assay [7] concerns the target T2, Calcium-activated potassium channel subunit alpha-1. The assay is described as follows: Inhibition of Maxi-K (unknown origin) expressed in HEK293 cells at 30 uM measured by thallium flux assay relative to control.
In assay [8] the target is T4, Potassium channel subfamily T member 2 (Homo sapiens, UniProt Q6UVM3).
T4 sequence (Q6UVM3 whole entry): T3 sequence (whole entry)
Description: Inhibition of Slick (unknown origin) expressed in HEK293 cells measured by thallium flux assay.

Assay [9] deals with T1, Potassium channel subfamily T member 1. Description: Activation of wild-type human Slack expressed in HEK293 cells measured by thallium flux assay.

As to `COc1ccc(Br)cc1NC(=O)CN1CCN(S(=O)(=O)N2CCC(C)CC2)CC1`, in [1], inhibition was half-maximal at 1.4 µM (IC50). Take `COc1ccc(Cl)cc1NC(=O)CN1CCN(S(=O)(=O)N2CCC(C)CC2)C[C@H]1C`: the IC50 in assay [1] is 2.4 µM; in assay [2] it was 1.1 µM; in assay [3], 1.7 µM; in assay [4] it was 1.9 µM; in [5], above 10 µM; in assay [8], above 10 µM. Further, the values for the Efficacy in assay [6] and in assay [7] were 50% and 32%, respectively. Compound `COc1ccc(Cl)cc1NC(=O)CN(C)CCN(C)S(=O)(=O)N1CCC(C)CC1` yielded an IC50 in assay [1] above 10 µM. Same read-out and setting: next, `CCCC1CCN(C(=O)N2CCN(S(=O)(=O)N3CCN(CC(=O)Nc4cc(Cl)ccc4OC)CC3)CC2)CC1`: above 10 µM. `CC1CCN(S(=O)(=O)N2CCN(CC(=O)Nc3cccc(F)c3)CC2)CC1` returned an EC50 in [9] of 4.6 µM. In the case of `COc1ccc(Cl)cc1NC(=O)N1CC2(C1)CN(S(=O)(=O)N1CCC(C)CC1)C2`, the IC50 in assay [1] is above 10 µM. In the case of `COc1ccc(F)cc1NC(=O)CN1CCN(S(=O)(=O)N2CCC(C)CC2)CC1`, the figures for the half-inhibitory concentration (IC50) in assay [1] and in assay [2] were 4.9 µM and 2.3 µM, respectively. `CC1CCN(S(=O)(=O)N2CCN(CC(=O)Nc3cc(Cl)ccc3F)CC2)CC1` came in with a concentration giving a half-maximal response (EC50) in assay [9] of 3.8 µM. The compound `COc1ccc(Cl)cc1NC(=O)CN1CCN(S(=O)(=O)N2CCC(C)CC2)[C@@H](C)C1` returned an IC50 in assay [1] above 10 µM.

As for `CCOc1ccc(Cl)cc1NC(=O)CN1CCN(S(=O)(=O)N2CCC(C)CC2)CC1`, in assay [1], 7.1 µM corresponded to half-maximal inhibition (IC50). As for `CC1CCN(S(=O)(=O)N2CCN(CC(=O)Nc3cc(Cl)ccc3OC(C)C)CC2)CC1`, 5.1 µM corresponded to half-maximal inhibition in [1] (IC50). In assay [1], `COc1ccc(Cl)cc1NC(=O)CN1CCN(S(=O)(=O)N2CCC(C)CC2)[C@H](C)C1` displayed an IC50 of 13 µM. In assay [8], `COc1ccc(Cl)cc1NC(=O)[C@H](C)N1CCN(S(=O)(=O)N2CCC(C(F)(F)F)CC2)CC1` gave an IC50 above 10 µM. In turn, `COc1ccc(NC(=O)CN2CCN(S(=O)(=O)N3CCC(C)CC3)CC2)cc1` registered an EC50 in assay [9] above 10 µM. The compound `COc1ccc(Cl)cc1NC(=O)N1CC2(CCN(S(=O)(=O)N3CCC(C)CC3)CC2)C1` returned an EC50 in [9] above 10 µM. With `Cc1ccc(Cl)cc1NC(=O)CN1CCN(S(=O)(=O)N2CCC(C)CC2)CC1`, in assay [1], the IC50 was above 10 µM. Consider `COc1ccc(Cl)cc1NC(=O)CN1CCN(S(=O)(=O)N2CCC(C)CC2)CC1`, for which the IC50 is 2.4 µM in assay [1]; 1.4 µM in assay [2]; 1.7 µM in assay [3]; 1.6 µM in assay [4]; above 10 µM in [8]. `COc1ccc(Cl)cc1NC(=O)N1CCCN(S(=O)(=O)N2CCC(C)CC2)CC1` had an IC50 in assay [1] of 6.2 µM. In assay [9], `COc1ccc(Cl)cc1NC(=O)CN1CCN(S(=O)(=O)N2CCN(C(=O)N3CCCCC3)CC2)CC1` returned an EC50 above 10 µM. In assay [9], `COc1ccc(Cl)cc1NC(=O)CN1CCN(S(=O)(=O)N2CCN(C(=O)N3CCCCCC3)CC2)CC1` showed an EC50 above 10 µM. As to `COc1ccc(C)cc1NC(=O)CN1CCN(S(=O)(=O)N2CCC(C)CC2)CC1`, the IC50 in assay [1] is above 10 µM. Consider `COc1ccccc1NC(=O)CN1CCN(S(=O)(=O)N2CCC(C)CC2)CC1`, for which, in [1], the concentration for half-maximal inhibition (IC50) was above 10 µM. In assay [9], `COc1ccc(Cl)cc1NC(=O)CN1CCN(S(=O)(=O)N2CCN(S(=O)(=O)N3CCC(F)(F)C3)CC2)CC1` registered an EC50 above 10 µM. With `CCCOc1ccc(Cl)cc1NC(=O)CN1CCN(S(=O)(=O)N2CCC(C)CC2)CC1`, the values for the IC50 in assay [1] and in assay [2] were 4.3 µM and 3.1 µM, respectively. As for `COc1ccc(C(F)(F)F)cc1NC(=O)CN1CCN(S(=O)(=O)N2CCC(C)CC2)CC1`, the IC50 was above 10 µM in assay [5] and 4.1 µM in assay [8]. As for `COc1ccc(Cl)cc1NC(=O)CN1CCN(S(=O)(=O)N2CCC(C)CC2)C[C@@H]1C`, the concentration for half-maximal inhibition (IC50) was found to be 3.5 µM in assay [1] and 2.1 µM in [2].

In [9], `Cc1ccc(NC(=O)CN2CCN(S(=O)(=O)N3CCC(C)CC3)CC2)cc1` gave an EC50 of 4.1 µM.
